# Measured values taken from US20250176599A1, “FLAVOR COMPOSITION AND FOOD AND BEVERAGE” (TAKASAGO INTERNATIONAL CORPORATION, priority 2021, published 2025).
# Experiments:
# [1] = Sensory evaluation of aqueous solution I containing (E)-2-nonenal 1 ppb: off-flavor intensity and masking component intensity; settings: (E)-2-nonenal 1 ppb, average score 0-4
# Outline: (§1)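 Nootkatone was added to ion-exchanged water spiked with the degradation component, and eight experienced panelists scored the samples. Off-flavor was rated relative to anchors: unmasked spiked solution = 4, plain water = 0. Masking-component intensity was rated absolutely on a 0–4 scale.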
# [2] = Sensory evaluation of aqueous solution II containing (E)-2-octenal 10 ppb: off-flavor intensity and masking component intensity; settings: (E)-2-octenal 10 ppb, average score 0-4
# Outline: as §1
# [3] = Sensory evaluation of aqueous solution III containing 1-octen-3-one 1 ppb: off-flavor intensity and masking component intensity; settings: 1-octen-3-one 1 ppb, average score 0-4
# Outline: as §1
# [4] = Sensory evaluation of aqueous solution IV containing 1,5-octadien-3-one 100 ppt: off-flavor intensity and masking component intensity; settings: aqueous solution IV, 1,5-octadien-3-one 100 ppt, average score 0-4
# Outline: as §1
# [5] = Sensory evaluation of aqueous solution V containing 1-octen-3-ol 10 ppb: off-flavor intensity and masking component intensity; settings: 1-octen-3-ol 10 ppb, average score 0-4
# Outline: as §1
# [6] = Sensory evaluation of aqueous solution VI containing 1,5-octadien-3-ol 10 ppb: off-flavor intensity and masking component intensity; settings: aqueous solution VI, 1,5-octadien-3-ol 10 ppb, average score 0-4
# Outline: as §1
# [7] = Sensory evaluation of degradation component-added soymilk I ((E)-2-nonenal 5 ppb); settings: average panel score
# Description: (§2) To commercially available soymilk (“Delicious Unadjusted Soymilk” manufactured by Kikkoman Corporation), each degradation component was added to prepare degradation component-added soymilks at the concentrations listed in Table 23. To these degradation component-added soymilks, 1,4-dioxacycloheptadecan-5,17-dione was added at the concentrations listed in Table 23 to confirm the intensity of the off-flavor (masking effect) and the intensity of the masking components (impact on the flavor of the soymilk itself) for each sample.
# (§3) Eight experienced panelists were selected to conduct a sensory evaluation similar to that of Example 1. […]
# [8] = Sensory evaluation of degradation component-added soymilk II (1-octen-3-ol 500 ppb); settings: average panel score
# Description: as §2, §3
# [9] = Overall conclusion of the sensory evaluation across aqueous solutions I to VI
# Outline: as §1
# [10] = Overall conclusion of the sensory evaluation across soymilks I and II
# Description: as §2
# Eight experienced panelists were selected to conduct a sensory evaluation similar to that of Example 1.
# The same method as in Example 20 was used to confirm the intensity of the off-flavor (masking effect) derived from unsaturated fatty acids by α-methyl ionone and the intensity of the masking components (impact on the flavor of the soymilk itself).
# The same method as in Example 20 was used to confirm the intensity of the off-flavor (masking effect) derived from unsaturated fatty acids by menthyl 3-hydroxybutyrate and the intensity of the masking components (impact on the flavor of the soymilk itself).
smiles,measurement,setting,value
"CCC(=O)/C=C/C1C(C)=CCCC1(C)C (stereo not drawn) [α-Methyl Ionone, α-methyl ionone]",Off-Flavor Intensity,[1]; 0.01 ppt added,3.9 points
same,Off-Flavor Intensity,[1]; 0.1 ppt added,3.3 points
same,Off-Flavor Intensity,[1]; 1 ppb added,1.5 points
same,Off-Flavor Intensity,[1]; 1 ppm added,0.3 points
same,Off-Flavor Intensity,[1]; 1 ppt added,2.9 points
same,Off-Flavor Intensity,[1]; 10 ppb added,1.0 points
same,Off-Flavor Intensity,[1]; 10 ppt added,2.4 points
same,Off-Flavor Intensity,[1]; 100 ppb added,0.3 points
same,Off-Flavor Intensity,[1]; 100 ppt added,1.8 points
same,Off-Flavor Intensity,[2]; 0.01 ppt added,3.1 points
same,Off-Flavor Intensity,[2]; 0.1 ppt added,2.8 points
same,Off-Flavor Intensity,[2]; 1 ppb added,1.0 points
same,Off-Flavor Intensity,[2]; 1 ppm added,0.3 points
same,Off-Flavor Intensity,[2]; 1 ppt added,2.1 points
same,Off-Flavor Intensity,[2]; 10 ppb added,0.8 points
same,Off-Flavor Intensity,[2]; 10 ppt added,1.5 points
same,Off-Flavor Intensity,[2]; 100 ppb added,0.4 points
same,Off-Flavor Intensity,[2]; 100 ppt added,1.1 points
same,Off-Flavor Intensity,[3]; 0.01 ppt added,3.4 points
same,Off-Flavor Intensity,[3]; 0.1 ppt added,3.1 points
same,Off-Flavor Intensity,[3]; 1 ppb added,1.4 points
same,Off-Flavor Intensity,[3]; 1 ppm added,0.3 points
same,Off-Flavor Intensity,[3]; 1 ppt added,2.6 points
same,Off-Flavor Intensity,[3]; 10 ppb added,1.3 points
same,Off-Flavor Intensity,[3]; 10 ppt added,2.3 points
same,Off-Flavor Intensity,[3]; 100 ppb added,0.3 points
same,Off-Flavor Intensity,[3]; 100 ppt added,1.9 points
same,Off-Flavor Intensity,[4]; 0.01 ppt added,3.4 points
same,Off-Flavor Intensity,[4]; 0.1 ppt added,3.3 points
same,Off-Flavor Intensity,[4]; 1 ppb added,1.5 points
same,Off-Flavor Intensity,[4]; 1 ppm added,0.4 points
same,Off-Flavor Intensity,[4]; 1 ppt added,2.9 points
same,Off-Flavor Intensity,[4]; 10 ppb added,1.4 points
same,Off-Flavor Intensity,[4]; 10 ppt added,2.6 points
same,Off-Flavor Intensity,[4]; 100 ppb added,0.8 points
same,Off-Flavor Intensity,[4]; 100 ppt added,1.9 points
same,Off-Flavor Intensity,[5]; 0.01 ppt added,3.6 points
same,Off-Flavor Intensity,[5]; 0.1 ppt added,3.3 points
same,Off-Flavor Intensity,[5]; 1 ppb added,1.4 points
same,Off-Flavor Intensity,[5]; 1 ppm added,0.1 points
same,Off-Flavor Intensity,[5]; 1 ppt added,2.8 points
same,Off-Flavor Intensity,[5]; 10 ppb added,0.8 points
same,Off-Flavor Intensity,[5]; 10 ppt added,2.4 points
same,Off-Flavor Intensity,[5]; 100 ppb added,0.5 points
same,Off-Flavor Intensity,[5]; 100 ppt added,1.8 points
same,Off-Flavor Intensity,[6]; 0.01 ppt added,3.5 points
same,Off-Flavor Intensity,[6]; 0.1 ppt added,3.3 points
same,Off-Flavor Intensity,[6]; 1 ppb added,1.4 points
same,Off-Flavor Intensity,[6]; 1 ppm added,0.5 points
same,Off-Flavor Intensity,[6]; 1 ppt added,2.8 points
same,Off-Flavor Intensity,[6]; 10 ppb added,1.4 points
same,Off-Flavor Intensity,[6]; 10 ppt added,2.4 points
same,Off-Flavor Intensity,[6]; 100 ppb added,0.6 points
same,Off-Flavor Intensity,[6]; 100 ppt added,2.0 points
same,Masking Component Intensity,[7]; 1 ppb added,0.8
same,Off-Flavor Intensity,[7]; 1 ppb added,2.6
same,Masking Component Intensity,[7]; 1 ppm added,3.9
same,Off-Flavor Intensity,[7]; 1 ppm added,0.5
same,Masking Component Intensity,[7]; 10 ppb added,1.9
same,Off-Flavor Intensity,[7]; 10 ppb added,1.9
same,Masking Component Intensity,[7]; 100 ppb added,3.1
same,Off-Flavor Intensity,[7]; 100 ppb added,1.0
same,Masking Component Intensity,[7]; 100 ppt added,0.1
same,Off-Flavor Intensity,[7]; 100 ppt added,3.0
same,Masking Component Intensity,[8]; 1 ppb added,0.8
same,Off-Flavor Intensity,[8]; 1 ppb added,2.1
same,Masking Component Intensity,[8]; 1 ppm added,3.9
same,Off-Flavor Intensity,[8]; 1 ppm added,0.4
same,Masking Component Intensity,[8]; 10 ppb added,1.4
same,Off-Flavor Intensity,[8]; 10 ppb added,1.3
same,Masking Component Intensity,[8]; 100 ppb added,2.8
same,Off-Flavor Intensity,[8]; 100 ppb added,0.9
same,Masking Component Intensity,[8]; 100 ppt added,0.4
same,Off-Flavor Intensity,[8]; 100 ppt added,2.5
same,"concentration that masks the off-flavor and does not affect the flavor of the food and/or beverage itself, lower limit",[9],≥ 0.1 ppt
same,"concentration that masks the off-flavor and does not affect the flavor of the food and/or beverage itself, upper limit",[9],≤ 100 ppb
same,"concentration that masks the off-flavor and does not affect the flavor of the soymilk itself, lower limit",[10],≥ 100 ppt
same,"concentration that masks the off-flavor and does not affect the flavor of the soymilk itself, upper limit",[10],≤ 100 ppb
